Like-named read-outs stand apart in the source and are kept apart here.
Tested on: HCV 1b genotype
Test: HCV Replicon assay, 1b genotype
Type: cell-based
Settings: Hepatitis C virus, HCV 1b genotype replicon
Description: An HCV Replicon assay was utilized in the present disclosure, and was prepared, conducted and validated as described in commonly owned PCT/US2006/022197 and in O'Boyle et. al. Antimicrob Agents Chemother. 2005 April; 49(4):1346-53. Assay methods incorporating luciferase reporters have also been used as described (Apath.com).
HCV-neo replicon cells and replicon cells containing mutations in the NS5A region were used to test the currently described family of compounds. The compounds were determined to have more than 10-fold less inhibitory activity on cells containing mutations than wild-type cells. Thus, the compounds of the present disclosure can be effective in inhibiting the function of the HCV NS5A protein and are understood to be as effective in combinations as previously described in application PCT/US2006/022197 and commonly owned WO/04014852. Further, the compounds of the present disclosure can be effective against the HCV 1b genotype. It should also be understood that the compounds of the present disclosure can inhibit multiple genotypes of HCV. […] In one embodiment, compounds of the present disclosure are active against the 1a, 1b, 2a, 2b, 3a, 4a, and 5a genotypes. EC50 values against HCV 1b are as follows: A=5 pM to 5 nM.

[1] = read-out: Range (EC50 values against HCV 1b)
[2] = read-out: 1b EC50 (Effective 50% inhibitory concentration)

Structure (SMILES)	EC50 [1]	EC50 [2]
O=C(N[C@@H](C(=O)N1[C@@H]2C[C@@H]2C[C@H]1c1nc(-c2ccc(-c3ccc(-c4c[nH]c([C@@H]5C[C@H]6C[C@H]6N5C(=O)[C@H](NC(=O)OC5CCC5)c5ccccc5)n4)cc3)cc2)c[nH]1)c1ccccc1)OC1CCC1 [Example CQ-5, Cyclobutyl ((1R)-2-((1R,3S,5R)-3-(4-(4′-(2-((1R,3S,5R)-2-((2R)-2-(((cyclobutyloxy)carbonyl)amino)-2-phenylacetyl)-2-azabicyclo[3.1.0]hex-3-yl)-1H-imidazol-5-yl)-4-biphenylyl)-1H-imidazol-2-yl)-2-azabicyclo[3.1.0]hex-2-yl)-2-oxo-1-phenylethyl)carbamate]	5 to 5000 pM	
O=C(N[C@@H](C(=O)N1CCC[C@H]1c1nc(-c2ccc(-c3ccc(-c4cnc([C@@H]5CCCN5C(=O)[C@H](NC(=O)OC5CCCCC5)c5ccccc5)[nH]4)cc3)cc2)c[nH]1)c1ccccc1)OC1CCCCC1 [Example CQ-4, Cyclohexyl ((1R)-2-((2S)-2-(4-(4′-(2-((2S)-1-((2R)-2-(((cyclohexyloxy)carbonyl)amino)-2-phenylacetyl)-2-pyrrolidinyl)-1H-imidazol-5-yl)-4-biphenylyl)-1H-imidazol-2-yl)-1-pyrrolidinyl)-2-oxo-1-phenylethyl)carbamate]	5 to 5000 pM	
O=C(N[C@@H](C(=O)N1[C@@H]2C[C@@H]2C[C@H]1c1nc(-c2ccc(-c3ccc(-c4c[nH]c([C@@H]5C[C@H]6C[C@H]6N5C(=O)[C@H](NC(=O)OC5CCCC5)c5ccccc5)n4)cc3)cc2)c[nH]1)c1ccccc1)OC1CCCC1 [Example CQ-6, Cyclopentyl ((1R)-2-((1R,3S,5R)-3-(4-(4′-(2-((1R,3S,5R)-2-((2R)-2-(((cyclopentyloxy)carbonyl)amino)-2-phenylacetyl)-2-azabicyclo[3.1.0]hex-3-yl)-1H-imidazol-5-yl)-4-biphenylyl)-1H-imidazol-2-yl)-2-azabicyclo[3.1.0]hex-2-yl)-2-oxo-1-phenylethyl)carbamate]	5 to 5000 pM	
O=C(N[C@@H](C(=O)N1CCC[C@H]1c1nc(-c2ccc(-c3ccc(-c4cnc([C@@H]5CCCN5C(=O)[C@H](NC(=O)OC5CC5)c5ccccc5)[nH]4)cc3)cc2)c[nH]1)c1ccccc1)OC1CC1 [Example CQ-3, Cyclopropyl ((1R)-2-((2S)-2-(4-(4′-(2-((2S)-1-((2R)-2-(((cyclopropyloxy)carbonyl)amino)-2-phenylacetyl)-2-pyrrolidinyl)-1H-imidazol-5-yl)-4-biphenylyl)-1H-imidazol-2-yl)-1-pyrrolidinyl)-2-oxo-1-phenylethyl)carbamate]	5 to 5000 pM	
O=C(N[C@@H](C(=O)N1[C@@H]2C[C@@H]2C[C@H]1c1nc(-c2ccc(-c3ccc(-c4cnc([C@@H]5C[C@H]6C[C@H]6N5C(=O)[C@H](NC(=O)OC5CCCCC5)c5ccccc5)[nH]4)cc3)cc2)c[nH]1)c1ccccc1)OC1CCCCC1 [Example CQ-8, Cyclohexyl ((1R)-2-((1R,3S,5R)-3-(4-(4′-(2-((1R,3S,5R)-2-((2R)-2-(((cyclohexyloxy)carbonyl)amino)-2-phenylacetyl)-2-azabicyclo[3.1.0]hex-3-yl)-1H-imidazol-5-yl)-4-biphenylyl)-1H-imidazol-2-yl)-2-azabicyclo[3.1.0]hex-2-yl)-2-oxo-1-phenylethyl)carbamate]	5 to 5000 pM	
O=C(N[C@@H](C(=O)N1CCC[C@H]1c1nc(-c2ccc(-c3ccc(-c4c[nH]c([C@@H]5CCCN5C(=O)[C@H](NC(=O)OC5CCC5)c5ccccc5)n4)cc3)cc2)c[nH]1)c1ccccc1)OC1CCC1 [Example CQ-1, Cyclobutyl ((1R)-2-((2S)-2-(4-(4′-(2-((2S)-1-((2R)-2-(((cyclobutyloxy)carbonyl)amino)-2-phenylacetyl)-2-pyrrolidinyl)-1H-imidazol-5-yl)-4-biphenylyl)-1H-imidazol-2-yl)-1-pyrrolidinyl)-2-oxo-1-phenylethyl)carbamate]	5 to 5000 pM	
O=C(N[C@@H](C(=O)N1[C@@H]2C[C@@H]2C[C@H]1c1nc(-c2ccc(-c3ccc(-c4cnc([C@@H]5C[C@H]6C[C@H]6N5C(=O)[C@H](NC(=O)OC5CC5)c5ccccc5)[nH]4)cc3)cc2)c[nH]1)c1ccccc1)OC1CC1 [Example CQ-7, Cyclopropyl ((1R)-2-((1R,3S,5R)-3-(4-(4′-(2-((1R,3S,5R)-2-((2R)-2-(((cyclopropyloxy)carbonyl)amino)-2-phenylacetyl)-2-azabicyclo[3.1.0]hex-3-yl)-1H-imidazol-5-yl)-4-biphenylyl)-1H-imidazol-2-yl)-2-azabicyclo[3.1.0]hex-2-yl)-2-oxo-1-phenylethyl)carbamate]	5 to 5000 pM	6.1 pM
O=C(N[C@@H](C(=O)N1CCC[C@H]1c1nc(-c2ccc(-c3ccc(-c4c[nH]c([C@@H]5CCCN5C(=O)[C@H](NC(=O)OC5CCCC5)c5ccccc5)n4)cc3)cc2)c[nH]1)c1ccccc1)OC1CCCC1 [Example CQ-2, Cyclopentyl ((1R)-2-((2S)-2-(4-(4′-(2-((2S)-1-((2R)-2-(((cyclopentyloxy)carbonyl)amino)-2-phenylacetyl)-2-pyrrolidinyl)-1H-imidazol-5-yl)-4-biphenylyl)-1H-imidazol-2-yl)-1-pyrrolidinyl)-2-oxo-1-phenylethyl)carbamate]	5 to 5000 pM	12 pM

From US8138215B2, “Hepatitis C virus inhibitors” (Bristol-Myers Squibb Company, priority 2009, dated 2012)
